In patent publication US11147807B2, “Pharmaceutical composition containing DUSP1 inhibitor” (INDUSTRY-UNIVERSITY COOPERATION FOUNDATION HANYANG …, priority 2017, dated 2021):
Where two headings read alike, the source gives them in different places.

Key:
[1] = target: T1, DUSP1 enzyme (activation domain, amino acid residues 166-316) (Homo sapiens, UniProt P28562); experiment: DUSP1 activity inhibitory potency, fluorescence enzyme assay with DiFMUP substrate; format: biochemical; settings: 50 nM DUSP1 activation domain, 10 μM DiFMUP, 5% DMSO
T1 construct: made in house; host or cells: E. coli BL21
T1 sequence (P28562 166-316): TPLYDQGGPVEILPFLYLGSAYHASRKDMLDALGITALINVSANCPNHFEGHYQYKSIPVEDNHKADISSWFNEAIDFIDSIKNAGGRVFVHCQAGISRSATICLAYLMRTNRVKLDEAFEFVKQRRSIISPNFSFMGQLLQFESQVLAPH
Description: The inhibitory potency of the DUSP1 activity on 8 kinds of the compounds screened in Example 1 was measured.
As the assay buffer, 20 mM Tris-HCl (pH 8.0), 0.01% Triton X-100 and 5 mM DTT were used, and a fluorescent substrate of 6,8-difluoro-4-methylumbelliferyl phosphate (DiFMUP) 10 μM was used as the substrate. The DUSP1 enzyme was expressed and purified from the activation domain (amino acid residues 166-316) and was used at 50 nM concentration in the enzyme reaction.
The expression and purification of the activation domain was carried out in the following manner. The DUSP1 activation domain (amino acid residues 166-316) was cloned into the pET28a (Novagen) vector and expressed in E. coli BL21 strain. The E. coli transformed with the expression vector of the DUSP1 activation domain was promoted with 0.1 mM of IPTG (isopropyl β-D-1-thiogalactopyranoside) at 37° C. The E. coli expressed with the DUSP1 activation domain was purified using a nickel affinity column after being crushed with a sonicator. The purified protein was quantified by the Bradford assay and used for the enzyme reaction.
The fluorescence generated by the enzymatic action was measured using a Victor spectrofluorometer (PerkinElmer) with an excitation/emission wavelength of 355 nm/460 nm. From the obtained results, the intermediate suppression value (IC50) was determined according to a 4-parameter logistic method of the Sigmaplot program package (Systat software Inc.), and the measurement results of the DUSP1 enzyme activity inhibitory potency were shown in Table 2 below.

PC12 neuron = experiment: Neurite outgrowth assay with NGF; format: cell-based; settings: PC12, phase contrast microscope, 72 hours
Description: The Neurite outgrowth assay was carried out with PC12 neuron by appropriately modifying the protocol described in Ishima et al., (2015) Potentiation of neurite outgrowth by brexpiprazole, a novel serotonin-dopamine activity modulator: A role for serotonin 5-HT1A and 5-HT2A receptors. Eur. Neuropsychopharm. 25, 505-511.
The PC12 neurite cells were distributed by the Korea Cell Line Bank (Seoul National University in Korea) and prepared in a 96-well plate at a density of 7,000 cells/well. The cell culture was performed in Dulbeco's Modified Eagle's Media (DMEM), 10% FBS and 1% Anti-anti (Gibco).

[2] = system: human liver cancer cell line Hep3B; experiment: MTT analysis of liver cancer cell growth inhibition; format: cell-based; settings: 96 hours, unit assumed
Description: (§1) The MTT analysis was performed to confirm the potency of inhibiting the growth of liver cancer cells of the DUSP1 inhibitor compound of the present invention.
(§2) A human liver cancer cell line Hep3B was cultured in DMEM, 10% FBS, 1% Anti-anti (Gibco) and prepared in a 96-well plate at a density of 7,000 cells/well. A normal hepatocyte line BNL-CL2 cell was cultured in DMEM, 10% FBS, 1% Anti-anti (Gibco) and prepared in a 96-well plate at a density of 3,000 cells/well.
(§3) After incubating at 37° C. for 15 hours, Compounds 6 to 8 were treated at the time of medium exchange so that final concentrations of the compounds in the medium become 2.5 μM and 5.0 μM, respectively, and the treatment conditions were adjusted so that the final DMSO concentration in the medium after treatment of the compounds can be maintained to 0.5%.
(§4) After 96 hours, a cell growth rate was measured using the Roche Cell […] Assay I (MTT) Kit. 10 μL of the MTT solution was added to each of 100 μL wells to a final concentration of 0.5 mg/ml, and then incubated at 37° C. for 4 hours and 100 μL of the solubilization buffer provided in the Kit was added.

[3] = system: normal hepatocyte line BNL-CL2; experiment: MTT analysis on normal hepatocyte line; format: cell-based; settings: 96 hours; for cell growth rate (MTT), BNL-CL2 cell line, compound concentration 5.0 μM: BNL-CL2, 5.0 μM, unit assumed
Description: as §1, §2, §3, §4

[4] = system: human liver cancer cell line Hep3B xenograft; experiment: Xenograft assay for tumor suppression; format: in vivo; settings: Hep3B xenograft in nude mouse, two intratumoral doses 4 days apart, measured 4 days after second dose; FIG. 4
Description: Using a xenograft assay method, it was confirmed whether the DUSP1 inhibitor of the present invention has the potency of inhibiting the cell growth of a liver cancer.
A human liver cancer cell line Hep3B of 1×10^7 was injected into the subcutaneous layer of the back of a nude mouse in DMEM medium, and then when the cell line was 200 to 500 mm^3 in size, it was extracted and inserted into the subcutaneous layer of the back of a new nude mouse in the size of 5×5×5 mm.
The primary and secondary compounds 7 were administered intratumorally at concentrations of 3 μg and 6 μg, respectively, and the primary and secondary compounds 8 were administered intratumorally at concentrations of 2 μg and 4 μg, respectively.

[5] = target: T1, DUSP1 enzyme (activation domain, amino acid residues 166-316); settings: comparison value quoted in text; read-out: IC50 value of known selective DUSP1 inhibitor; cited from earlier work

Row | SMILES | IC50 [1] [µM] | cell growth rate (MTT), BNL-CL2 cell line, compound concentration […] [3] | other results
1 | CC(C)C(=O)c1c(Nc2cc(Cl)cc(Cl)c2)[nH]c2c(Cl)ccc([N+](=O)[O-])c2c1=O [Compound 1] | 5.1 |  | 
2 | CC(=O)c1c(Nc2ccc(Cl)cc2Cl)[nH]c2c(Cl)ccc(F)c2c1=O [Compound 3] | 7.5 |  | 
3 | CC(=O)c1c(Nc2ccc(Br)cc2Br)[nH]c2c(Cl)ccc(F)c2c1=O [Compound 4] | 6.1 |  | 
4 | O=C(c1c(Nc2cc(Cl)cc(Cl)c2)[nH]c2c(Cl)ccc([N+](=O)[O-])c2c1=O)C1CC1 [Compound 5] | 4.1 |  | 
5 | CC(=O)c1c(Nc2cc(C(F)(F)F)cc(C(F)(F)F)c2)[nH]c2c(Cl)ccc(F)c2c1=O [Compound 6] | 4.2 | 111 | induction of neurite outgrowth (PC12 neuron): shape of neurites stretching from the cell can be confirmed; cell growth rate (MTT), HEP3B cell line, compound concentration 5.0 μM [2]: 14%; cell growth rate (MTT), BNL-CL2 cell line, compound concentration 5.0 μM [3]: 8%
6 | CC(C)CC(=O)c1c(Nc2cc(Cl)cc(Cl)c2)[nH]c2c(Cl)ccc([N+](=O)[O-])c2c1=O [Compound 7] | 3.5 | 156 | tumor size reduction [4]: about 70%
7 | CC(C)CC(=O)c1c(Nc2cccc(Cl)c2Cl)[nH]c2c(Cl)ccc([N+](=O)[O-])c2c1=O [Compound 8] | 4.8 | 139 | cell growth rate (MTT), HEP3B cell line, compound concentration 5.0 μM [2]: 16%; cell growth rate (MTT), BNL-CL2 cell line, compound concentration 5.0 μM [3]: 54%; tumor size reduction [4]: about 85%
8 | C[n+]1cc2c3c(ccc2c2ccc4cc5c(cc4c21)OCO5)OCO3 [Sanguinarin] |  |  | IC50 [5]: 10 µM
